Patent US20250049747A1, “USE OF HYPERPOLARIZING AGENTS ALONE AND IN COMBINATION WITH OTHER THERAPEUTIC AGENTS FOR TREATING CANCERS INCLUDING GLIOBLASTOMA” (Trustees of Tufts College, priority 2021, published 2025)

What was measured:
[1] = test system: human glioblastoma U87 cells; assay: Growth and FUCCI assays in U87 cells (cell counts, cell cycle, recovery test); format: cell-based; conditions: for FUCCI cell cycle proportion: U87, day 6; for recovery of proliferation after treatment removed: U87, drugs removed at day 6, followed to day 10
Description: U87 (ATCC) cells were cultured under the same conditions as the NG108-15 cells minus the HAT supplement and used at passage 7-10 for experiments.

NG108-15 cells = assay: Antibody staining, BrdU and senescence assays in NG108-15 cells; format: cell-based, mouse/rat; conditions: NG108-15, 6 days
Description: Antibody Staining, BrdU and Senescence Assays. NG108-15 cells were plated on PEI and Matrigel coated plates at 15,000 or 30,000 cells/mL, U87 cells at 10,000 cells/mL and grown in imaging media for 6 days with drug treatment. Fresh media was added every 2 days. On day 6, cells were fixed with 4% formaldehyde in PBS for 30 minutes for all antibody staining, except for BrdU which was fixed for 15 minutes, and for the senescence assay which was fixed for 20 min using the Senescence Beta-Galactosidase Staining Kit (9860, CellSignaling) and thereafter stained according to manufacturer's protocol. After fixing, cells were washed twice with PBS, and were permeabilized in PBS with 0.3% Triton-X for 15 min then washed again twice with PBS. The cells for the BrdU assay were additionally treated with 1N HCl for 10 min on ice, followed by a treatment with 2N HCl for 50 min at room temp. Cells were then blocked with standard blocking buffer comprised of TBS containing 10% goat serum, 0.1% BSA, and with 0.05% Tween 20 or without detergent for antibodies against phosphorylated proteins or monoclonal antibodies except for Anti-YAP and Anti-BrdU staining, which were done according to manufacturer's protocol. Primary antibodies were added at the following concentrations: 1:250 anti-S100 beta (GTX129573, Genetex), 1:500 anti-GFAP (AB5804, EMD-Millipore), 1:300 anti-SOX10 (ab155279, Abcam), 1:100 MAP2 (4542, CellSignaling), 1:400 anti-cleaved caspase 3 (9661, CellSignaling), 1:300 anti-Cx43 (STJ2411, St. John's Labratory), 1:800 anti-p27^Kip1 (3698, CellSignaling), 1:150 anti-BrdU (5292, CellSignaling), 1:125 anti-LC3-II (2775, CellSignaling), 8 μg/mL anti-04 (MAB1326, R&D Systems), 1:1000 anti-TH (RPCA-TH, Encor), 1:4000 anti-NSE (RPCA-NSE, Encor), 1:4000 anti-NFM (RPCA-NF-M, Encor), 0.5 μg/mL anti-TujI (801202, Biolegend), 1:400 anti-NF-KB p65 (8242, CellSignaling), 1:125 anti-phospho CREB (05-807, EMD-Millipore), 1:250 anti-vimentin (ab92547, Abcam), 1:125 anti-YAP (14074, CellSignaling). Antibodies were diluted in their respective blocking buffer and incubated overnight at 4° C. The next day, cells were washed with TBS-T or TBS for 3× for 5 min each and secondary antibody was added as follows: 1:1000 donkey anti-mouse 647 (A-31571, Thermo-Fisher) or 1:1000 donkey anti-rabbit 647 (A-31573, Thermo-Fisher). Each were diluted in blocking buffer along with 2.5 μg/mL Hoechst 33342 and incubated for 1 hour at room temperature. Cells were then washed again with TBS-T or TBS for 3× for 5 min each and covered with Gelvatol. Cells were imaged with an EVOS M7000 system, with at least 50% of each well in a 96 well plate imaged and analyzed using a CellProfiler pipeline for measuring integrated intensity, mean intensity, or nuclear to cytoplasmic ratio of mean intensities.

U87 cells = assay: Physiological dye staining of U87 cells (DiBAC4(3), pHrodo Green, LysoSensor Green, Fluo-4 AM); format: cell-based, human
Description: Dye Staining Protocols. For the Live/Dead assay, 1 μM Calcein Green AM and 0.5 μM ethidium homodimer-1 (L3224, ThermoFisher) were added to PBS along with 10 μg/mL of Hoechst to make the staining solution. Half the media was removed from the human neuronal cells that had been incubated with treatments for 3 days and replaced with staining solution. […] Cells were then incubated for 15 min at 37° C. and imaged. For resting membrane potential staining, DiBAC4(3) was used. U87 cells were seeded at 10,000 cells per mL on Matrigel coated plates as described above. Cells were treated with drugs for 6 days with changes in media every other day. On day 6 the media was removed and washed once with dye buffer consisting of Hank's Balanced Salt Solution (HBSS) with 20 mM HEPES at pH 7.4 and then the staining solution, consisting of dye buffer with 2 μM DiBAC4(3) was added to the cells and allowed to incubate for 30 min at 37° C. The staining solution was then removed and fresh staining solution containing the treatments were added to the cells. For cytoplasmic calcium staining, Fluo-4 AM was used. The staining solution consisted of dye buffer with 4 μM Fluo-4 AM and a 1:1 ratio of Pluronic F-127 (20% in DMSO) and allowed to incubate for 30 min at room temperature. The staining solution was then removed, and fresh dye buffer was added and allowed to incubate for 20 min at 37° C. Then dye buffer containing the treatments were added to the cells. For cytoplasmic pH staining, pHrodo Green was used. The staining solution consisted of dye buffer with a 1:1000 dilution of the pHrodo Green stock and a 1:100 dilution of the PowerLoad concentrate (P35373, ThermoFisher). The cells were allowed to incubate for 30 min at 37° C. Staining solution was removed and washed once with dye buffer then fresh dye buffer containing the treatments were added and allowed to incubate for 5 min at 37° C. Calibration curve was done by instead adding the components of the intracellular pH calibration kit (P35379 ThermoFisher). For lysosomal pH staining, LysoSensor Green was used. The staining solution consisted of dye buffer with a 1 μM dilution of LysoSensor Green DND-187 (L7535 ThermoFisher). The cells were incubated as above and staining solution was removed and replaced with dye buffer containing 2.5 μg/mL Hoechst 33342 for 10 min. Hoechst was removed and cells were washed with dye buffer one time before adding dye buffer containing the treatments. Cells were imaged using an EVOS M7000 system outfitted with a GFP filter cube for stains and a DAPI filter for Hoechst. Images were then analyzed using a CellProfiler pipeline.

Compound | fold decrease in cell proliferation to control ([1]; U87, 6 days, NS1643 at 50 μM) [fold] | FUCCI cell cycle proportion [1] | recovery of proliferation after treatment removed [1] | cleaved caspase 3 staining (NG108-15 cells) | size of the nuclei (NG108-15 cells) | resting membrane potential by voltage dye DiBAC4(3) (U87 cells; U87, 6 day treated) | cytoplasmic calcium levels (Fluo-4AM) (U87 cells; U87, 6 days) | lysosomal pH (LysoSensor Green) (U87 cells; U87, 6 days) | cell proliferation compared to single compound alone ([1]; U87, 6 days) | percent reduction in cells compared to control ([1]; U87, 6 days of treatment) [%] | BrdU incorporation (NG108-15 cells) | S100B and GFAP markers (NG108-15 cells) | connexin 43 (Cx43) expression (NG108-15 cells) | senescence-associated beta-galactosidase activity stain (NG108-15 cells) | lysosomes (LysoSensor Green signal) (U87 cells; U87, 6 days)
O=C(Nc1cc(C(F)(F)F)ccc1O)Nc1cc(C(F)(F)F)ccc1O [NS1643] | 1.7 | did not show a large change in proportion of cells | high increase in proliferation | decrease the cleaved caspase 3 positive cells significantly | significantly larger | significant hyperpolarization | increase cytoplasmic calcium levels | dramatic alkalization of the lysosomes | – | – | – | – | – | – | –
COc1ccnc(C[S+]([O-])c2nc3ccc(OC(F)F)cc3[nH]2)c1OC (centres unmarked) [Pantoprazole, pantoprazole] | – | increase in the early S proportion of cells | immediately re-entered the cell cycle | significant increase in cleaved caspase 3 staining | significantly larger | – | – | did not show an alkalinization of the lysosome | significantly more effective at reducing cell proliferation after 6 days of treatment than TMZ alone | 54 | significant decrease | significantly upregulated | increase in connexin 43 (Cx43) expression | very significant increase | significant increase in lysosomes
